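Following 48 hours of exposure in 96-well plates, responses at five concentrations were used to interpolate endpoints linearly. At the GI50, growth is halved.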 The source made the active and inactive calls. Cut-off read from the data, not from the text of the source: active = GI50 up to about 1.1 µM and inactive = higher.
How the values were obtained:
Test in all cases: NCI tumour cell line growth inhibition, 48 h
HL-60 = test system: HL-60
OVCAR-4 = test system: OVCAR-4
PC-3 = test system: PC-3
K562 = test system: K562
SW-620 = test system: SW-620
M14 = test system: M14
LOX IMVI = test system: LOX IMVI
HCC 2998 = test system: HCC 2998
MCF7 = test system: MCF7
RPMI-8226 = test system: RPMI-8226
DU-145 = test system: DU-145
OVCAR-8 = test system: OVCAR-8
SNB-19 = test system: SNB-19
HCT-116 = test system: HCT-116
NCI-H460 = test system: NCI-H460
CCRF-CEM = test system: CCRF-CEM
SN12C = test system: SN12C
EKVX = test system: EKVX
NCI-H226 = test system: NCI-H226
U-251 = test system: U-251

| Structure (SMILES) | GI50 (HL-60) | GI50 (OVCAR-4) | GI50 (PC-3) | GI50 (K562) | GI50 (SW-620) | GI50 (M14) | GI50 (LOX IMVI) | GI50 (HCC 2998) | GI50 (MCF7) | GI50 (RPMI-8226) | GI50 (DU-145) | GI50 (OVCAR-8) | GI50 (SNB-19) | GI50 (HCT-116) | GI50 (NCI-H460) | GI50 (CCRF-CEM) | GI50 (SN12C) | GI50 (EKVX) | GI50 (NCI-H226) | GI50 (U-251) |
| --- | --- | --- | --- | --- | --- | --- | --- | --- | --- | --- | --- | --- | --- | --- | --- | --- | --- | --- | --- | --- |
| CCOC(=O)c1c2cccccc-2nc1Nc1cccc2c(C)ccnc12 | 4.47 µM (inactive) | 4.82 µM (inactive) | 5.75 µM (inactive) | 4.01 µM (inactive) | > 10 µM (inactive) | > 10 µM (inactive) | > 10 µM (inactive) | > 10 µM (inactive) | 8.24 µM (inactive) | 3.03 µM (inactive) | > 10 µM (inactive) | > 10 µM (inactive) | > 10 µM (inactive) | 5.12 µM (inactive) | 7.31 µM (inactive) | 4.88 µM (inactive) | > 10 µM (inactive) | > 10 µM (inactive) | > 10 µM (inactive) | > 10 µM (inactive) |
| c1ccc(COC2C3COC(O3)C(OCc3ccccc3)C2OCc2ccccc2)cc1 (stereo not given) | 13.2 µM (inactive) | 49.1 µM (inactive) | 35.2 µM (inactive) | 27.9 µM (inactive) | 40.1 µM (inactive) | 32.2 µM (inactive) | 30.6 µM (inactive) | 14.6 µM (inactive) | 39.1 µM (inactive) | 12.2 µM (inactive) | 78.5 µM (inactive) | 60.7 µM (inactive) | 27.3 µM (inactive) | 33.9 µM (inactive) | 22 µM (inactive) | 11.2 µM (inactive) | 13.6 µM (inactive) | 38.7 µM (inactive) | 60.7 µM (inactive) | > 100 µM (inactive) |
| COc1cc(CNC(=O)CCCCCCCC/C=C/Br)ccc1O | > 10 µM (inactive) | > 10 µM (inactive) | > 10 µM (inactive) | > 10 µM (inactive) | > 10 µM (inactive) | > 10 µM (inactive) | > 10 µM (inactive) | > 10 µM (inactive) | > 10 µM (inactive) | > 10 µM (inactive) | > 10 µM (inactive) | > 10 µM (inactive) | > 10 µM (inactive) | > 10 µM (inactive) | > 10 µM (inactive) | > 10 µM (inactive) | > 10 µM (inactive) | > 10 µM (inactive) | > 10 µM (inactive) | > 10 µM (inactive) |
| Cc1ccc2nnc(NS(=O)(=O)c3cc(C)c(Cl)cc3S)n2n1 | > 100 µM (inactive) | > 100 µM (inactive) | > 100 µM (inactive) | > 100 µM (inactive) | > 100 µM (inactive) | > 100 µM (inactive) | > 100 µM (inactive) | > 100 µM (inactive) | > 100 µM (inactive) | > 100 µM (inactive) | > 100 µM (inactive) | > 100 µM (inactive) | > 100 µM (inactive) | > 100 µM (inactive) | > 100 µM (inactive) | > 100 µM (inactive) | > 100 µM (inactive) | > 100 µM (inactive) | > 100 µM (inactive) | > 100 µM (inactive) |
| CC1OC(OC2C(OC(=O)[C@]34CCC(C)(C)C[C@H]3C3=CC[C@@H]5[C@@]6(C)CC[C@H](OC7OC(CO)C(O)C(O)C7OC7OC(CO)C(O)C(O)C7O)C(C)(C)[C@@H]6CC[C@@]5(C)[C@]3(C)CC4)OCC(O)C2O)C(O)C(OC2OCC(O)C(O)C2O)C1OC1OCC(O)C(OC2OCC(O)C(O)C2O)C1O (stereo not given in full) | 3.94 µM (inactive) | 10 µM (inactive) | 11.8 µM (inactive) | 6.55 µM (inactive) | 15.7 µM (inactive) | 2.42 µM (inactive) | 16.2 µM (inactive) | 2.14 µM (inactive) | 7.71 µM (inactive) | 7.69 µM (inactive) | 10.5 µM (inactive) | 18 µM (inactive) | 16.7 µM (inactive) | 8.97 µM (inactive) | 69 µM (inactive) | 22.3 µM (inactive) | 2.26 µM (inactive) | 4.34 µM (inactive) | 7.05 µM (inactive) | 18.2 µM (inactive) |
| O=C(N[C@@H](Cc1ccccc1)B(O)O)[C@H](Cc1cccc2ccccc12)NC(=O)N1CCOCC1 | < 0.01 µM (active) | 0.00454 µM (active) | 0.00569 µM (active) | 0.00371 µM (active) | 0.00258 µM (active) | 0.00168 µM (active) | 0.00124 µM (active) | 0.00182 µM (active) | 0.000476 µM (active) | 0.000412 µM (active) | 0.00627 µM (active) | 0.0254 µM (active) | 0.00708 µM (active) | 0.000412 µM (active) | 0.0215 µM (active) | 0.000186 µM (active) | 0.00371 µM (active) | 0.0267 µM (active) | 0.00029 µM (active) | 0.00423 µM (active) |
| Cc1cccc(Nc2nc3ccccc3nc2NS(=O)(=O)c2ccc(N)cc2)c1 | 28.1 µM (inactive) | 10 µM (inactive) | 29.6 µM (inactive) | 25.2 µM (inactive) | 17.6 µM (inactive) | 37.8 µM (inactive) | 52.1 µM (inactive) | 30.9 µM (inactive) | 24.4 µM (inactive) | 23.4 µM (inactive) | 37.2 µM (inactive) | 39.6 µM (inactive) | 31.3 µM (inactive) | 33.1 µM (inactive) | 32.5 µM (inactive) | 15.2 µM (inactive) | 36.6 µM (inactive) | 54.3 µM (inactive) | 60.4 µM (inactive) | 20.7 µM (inactive) |
| [O-]/[N+](=C\c1ccccc1OC(=S)S)c1ccc(Cl)cc1 | 0.22 µM (active) | 13.9 µM (inactive) | 23.9 µM (inactive) | 10.6 µM (inactive) | 11.2 µM (inactive) | 24.2 µM (inactive) | 14.9 µM (inactive) | 45.3 µM (inactive) | 13 µM (inactive) | 5.7 µM (inactive) | 42.9 µM (inactive) | 8.24 µM (inactive) | 83.4 µM (inactive) | 10.1 µM (inactive) | 0.292 µM (active) | 2.42 µM (inactive) | 24.8 µM (inactive) | 25.7 µM (inactive) | 48.4 µM (inactive) | 19.8 µM (inactive) |
| COc1ccc2c(c1)CCCN2S(=O)(=O)c1ccccc1[N+](=O)[O-] | 4.56 µM (inactive) | 45.7 µM (inactive) | 34.9 µM (inactive) | 5.89 µM (inactive) | 17.4 µM (inactive) | 40.8 µM (inactive) | 32.4 µM (inactive) | 35.6 µM (inactive) | 21.6 µM (inactive) | 29.4 µM (inactive) | 74.5 µM (inactive) | 53.7 µM (inactive) | > 73.3 µM (inactive) | 24.2 µM (inactive) | 26 µM (inactive) | 33.7 µM (inactive) | 65.6 µM (inactive) | 56 µM (inactive) | 44.2 µM (inactive) | 24.3 µM (inactive) |
| C(=N/NC1=NCCN1)/c1c2ccccc2c(/C=N\NC2=NCCN2)c2ccccc12 | 0.0528 µM (active) | 0.302 µM (active) | 0.0687 µM (active) | 0.0664 µM (active) | 0.113 µM (active) | 0.171 µM (active) | 0.0931 µM (active) | 0.14 µM (active) | 0.0568 µM (active) | 0.0826 µM (active) | 0.0619 µM (active) | 0.252 µM (active) | 0.0746 µM (active) | 0.0603 µM (active) | 0.0279 µM (active) | 0.0408 µM (active) | 0.111 µM (active) | 0.149 µM (active) | 0.0966 µM (active) | 0.061 µM (active) |
| CCC/C(Cl)=N/OC(=O)Nc1cc(C(F)(F)F)ccc1OC | 1.77 µM (inactive) | 3.23 µM (inactive) | 16.2 µM (inactive) | 1.79 µM (inactive) | 3.55 µM (inactive) | 4.4 µM (inactive) | 4.46 µM (inactive) | 16.9 µM (inactive) | 12.4 µM (inactive) | 2.33 µM (inactive) | 16.3 µM (inactive) | 16.1 µM (inactive) | 17.6 µM (inactive) | 9.89 µM (inactive) | 19.5 µM (inactive) | 1.91 µM (inactive) | 14.3 µM (inactive) | 7.24 µM (inactive) | 15.5 µM (inactive) | 17.7 µM (inactive) |
| COC1/C=C/C(C)C(C(C)C(OC)C(C)CCC(=O)C(C)C(CCC(=O)O)OC)OC(=O)/C=C/C=C(\C)CC(OC)CC2=CC(=O)O[C@@H](C(C)C(OC)CC(OC)/C=C/C(C)C(OC)C1)[C@H]2O (stereo not given in full) | 0.185 µM (active) | 0.971 µM (active) | 0.454 µM (active) | 1.92 µM (inactive) | 0.607 µM (active) | 0.63 µM (active) | 0.226 µM (active) | 0.353 µM (active) | 1.04 µM (active) | 0.242 µM (active) | 1.71 µM (inactive) | 2.21 µM (inactive) | 0.679 µM (active) | 0.385 µM (active) | 0.43 µM (active) | 0.181 µM (active) | 0.733 µM (active) | 2.22 µM (inactive) | 0.695 µM (active) | 0.249 µM (active) |
| COc1ccc2[nH]c3c(C)c4c(c(C)c3c2c1)CN(C)C=C4 | 22.4 µM (inactive) | 3.95 µM (inactive) | 11.5 µM (inactive) | 3.44 µM (inactive) | 1.35 µM (inactive) | 8.77 µM (inactive) | 9.77 µM (inactive) | 2.71 µM (inactive) | 4.53 µM (inactive) | 7.24 µM (inactive) | 5.37 µM (inactive) | 0.309 µM (active) | 0.333 µM (active) | 2.61 µM (inactive) | 1.32 µM (inactive) | 3.76 µM (inactive) | 0.164 µM (active) | 2.49 µM (inactive) | 0.267 µM (active) | 0.219 µM (active) |
| COC(=O)c1ccc2c(c1)CC1(C2)Cc2ccccc2C1=O (stereo not given) | 26.5 µM (inactive) | 32.3 µM (inactive) | 42.8 µM (inactive) | 30.3 µM (inactive) | 32.7 µM (inactive) | 18.7 µM (inactive) | 22.4 µM (inactive) | 54.5 µM (inactive) | 22.9 µM (inactive) | 13.4 µM (inactive) | 36.3 µM (inactive) | 38.5 µM (inactive) | 66.1 µM (inactive) | 23.8 µM (inactive) | > 100 µM (inactive) | 19.9 µM (inactive) | 25.9 µM (inactive) | 29.5 µM (inactive) | 15.1 µM (inactive) | 34.2 µM (inactive) |
